These results are taken from US7026289B2, “Method and compositions for treating hyperlipidemia and other conditions” (Societe de Conseils de Recherches et d'Applications …, priority 1997, dated 2006).

Assay [1] has as its system fatty (fa/fa) Zucker rats. The assay is described as follows: Reduction of glycerol and triglycerides, chronic treatment in obese rats. Format: in vivo, rat. The settings on record: for plasma glycerol / plasma triglycerides: 3 mg/kg s.c. twice a day, 6 days, vs saline. An excerpt:
The obese (fa/fa) Zucker and its derivative in the Zucker diabetic fatty (ZDF/Drt-fa) are excellent models of diabetes-induced dyspilidemia (Shafrir, E., Diabetes/Metabolism Rev. 8:179–208 (1992); Peterson, R. G., et al., ILAR News 32:16–19 (1990)). The animals develop progressive hypertriglyceridemia and hypercholesterolemia.
Eleven male fatty Zucker rats weighing about 450 grams were randomly divided into 2 groups and their initial body wights recorded. The animals were housed in pairs in a normal 12 hour light/dark cycle at 20–21 C and fed a standard laboratory rat diet (Beekay rat and mouse diet, Bantin & Kingman, Hull, Humberside, U.K.) overnight ad libitum.
For the group assigned to receive drug treatment, the rats received BIM-23268C at 3 mg/kg, by subcutaneous injection twice a day at 10:00 a.m. and 5:00 p.m. The other group was treated with a subcutaneous injection of 0.1 ml/100 g of saline twice a day at 10:00 a.m. and 5:00 p.m. The animals were subjected to the BIM-23268 or saline treatment for a total of six days.
On the last day of treatment (day 6), food was removed at 5:00 p.m. and the rats fasted overnight. At 9:00 a.m. the next day, the animals were subjected to a glucose challenge, given as a 0.8 gram/kg of glucose orally. Periodic 400 ul of blood samples were taken from the tail vein (Peterson, R. G., ILAR News 32:16–19 (1990)) at 60 min. and 30 min. before, and at 30, 60, 90, and 120 min. after the administration of the glucose challenge (08. gram/kg orally). Aprotinin (Traysylol, Bayer UK, Hayward's Heath, W. Sussex, U.K.) and heparin (Sigma Chemical Co., Poole, Dorset, U.K.) were added to the blood samples to a final concentration of 400 KIU/ml and 100 units/ml, respectively. Plasma fractions were prepared from these samples by centrifugation at 400×G in a microfuge, for the estimation of triglycerides and glycerol. Samples were then stored at −80° C. until assayed.
Plasma glycerol and triglycerides were determined using the Sigma Enzymatic (Tinder) calorimetric assay kit (Cat #337-B, Sigma Chemical Co., Poole, Dorset, U.K.) and measuring absorbance at 540 nm in a spectrophotometer.

For assay [2], the target named is T1, hSSTR-1 (Homo sapiens, UniProt P30872).
T1 construct: expressed in transfected cells
T1 sequence (P30872 whole entry): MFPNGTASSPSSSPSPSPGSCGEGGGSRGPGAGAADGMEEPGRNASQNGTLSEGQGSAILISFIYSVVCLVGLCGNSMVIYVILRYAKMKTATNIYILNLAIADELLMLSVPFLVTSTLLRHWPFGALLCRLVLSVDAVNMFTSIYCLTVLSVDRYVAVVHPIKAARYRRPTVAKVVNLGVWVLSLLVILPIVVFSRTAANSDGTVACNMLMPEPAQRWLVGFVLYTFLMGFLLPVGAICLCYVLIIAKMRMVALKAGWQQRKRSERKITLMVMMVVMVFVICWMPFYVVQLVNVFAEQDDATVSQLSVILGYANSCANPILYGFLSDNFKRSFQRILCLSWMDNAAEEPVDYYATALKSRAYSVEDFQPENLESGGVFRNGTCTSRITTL
The assay is described as follows: Somatostatin receptor binding assay, [125I-Tyr11] somatostatin-14, CHO-K1 membranes. The following applies: displacement of 0.05 nM [125I-Tyr11] somatostatin-14, transfected CHO-K1 membranes. As to the method:
Restriction endonucleases are available from New England Biolabs (Beverly, Mass.). […] Other mammalian expression vectors include pcDNA1/Amp (Invitrogen, Sandlesy, Calif.). The expression plasmids were introduced into the suitable bacterial host, E. Coli HB101 (Stratagene, La Jolla, Calif.) and plasmid DNAs, for transfection, were prepared on Cesium Chloride gradients.
CHO-K1 (ovary, Chinese hamster) cells were obtained from ATCC (ATCC No. CCL 61). The cells were grown and maintained in Ham's F12 media (Gibco BRL, Grand Island, N.Y.) supplemented with 10% fetal bovine serum under standard tissue culture conditions. […] DNA mediated transfection was carried out using the calcium phosphate co-precipitation method (Ausubel, F. M., et al., Current Protocols in Molecular Biology, John Wiley & Sons, 1987). The plasmid pRSV-neo (ATCC; ATCC No. 37198) was included as a selectable marker at 1/10 the concentration of the expression plasmid. CHO-K1 clonal cell lines that have stably inherited the transfected DNA were selected for growth in Ham's F12 media containing 10% fetal bovine serum and 0.5 mg/ml of G418 (Sigma). The cells were ring-cloned and expanded in the same media for analysis.
Transfected cell lines expressing the human SSTR receptors were clonally expanded in culture and used in the following SSTR binding protocol.
The resulting supernatant was decanted and discarded. […]

Setting [3] is: samples 30 and 60 min before oral glucose challenge.
The mark [4] stands for this setting: through the 2-hour test period after oral glucose challenge.

pKi: −log10 of the molar value. Positions of bridges follow the written chain, without caps; N, C: chain ends. Non-standard residues stand in square brackets, D forms with d. Residues, ends and D or L forms follow the SMILES beside them.

What is called pKi is the Ki on a negative log10 scale, so that one unit is a factor of ten. A high value points to a small Ki.

Consider `C[C@@H](O)[C@@H]1NC(=O)[C@H](CCCCN)NC(=O)[C@@H](Cc2c[nH]c3ccccc23)NC(=O)[C@H](Cc2ccccc2)NC(=O)[C@H](Cc2ccccc2)NC(=O)[C@@H](N)CSSC[C@@H](C(N)=O)NC(=O)[C@H](Cc2ccccc2)NC1=O` [BIM-23268, H-Cys-Phe-Phe-D-Trp-Lys-Thr-Phe-Cys-NH2] (H-CFF[dW]KTFC-NH2; disulfide 1-8), for which, in assay [1] (setting [3]), the plasma glycerol result is reported as “significantly lowered” and the plasma triglycerides result was “significantly lowered”. For the same compound, in assay [1] (setting [4]), the plasma glycerol entry is “significantly lower” and the plasma triglycerides entry is given as “significantly lower”. The hypertriglyceridemia result in assay [1] (6-day treatment period at the prescribed dose (3 mg/kg s.c. twice a day)) is reported as “effective in reducing hypertriglyceridemia”.
As to `C[C@@H](O)[C@@H]1NC(=O)[C@H](CCCCN)NC(=O)[C@@H](Cc2c[nH]c3ccccc23)NC(=O)[C@H](Cc2ccc(O)c(I)c2)NC(=O)[C@H](Cc2ccccc2)NC(=O)[C@@H](N)CSSC[C@@H](C(N)=O)NC(=O)[C@H](Cc2ccccc2)NC1=O` [BIM-23313, H-Cys-Phe-Tyr(I)-D-Trp-Lys-Thr-Phe-Cys-NH2], the negative logarithm of the Ki (pKi) in assay [2] is 6.82.
